Measurements: US8445636B2, “Antimicrobial and anticancer lipopeptides” (Yeda Research & Development Co. Ltd., priority 2003, dated 2013)
≈ marks a conversion by molar mass, not a printed value. One block for each compound: values may come before it. Positions of bridges follow the written chain, without caps; N, C: chain ends. Non-standard residues stand in square brackets, D forms with d. Residues, ends and D or L forms follow the SMILES beside them. *: point of attachment. Palmitoyl = CCCCCCCCCCCCCCCC(=O)*; Myristoyl = CCCCCCCCCCCCCC(=O)*

Assays:
[1] = system: Aspergillus fumigatus ATCC 26430; assay: microbe, parasite or virus in culture; type: cell-based; conditions: ATCC 26430, pH 7.4
E. coli D21 = type: cell-based; conditions: D21, pH 7.4
[2] = system: Cryptococcus neoformans ATCC MYA-422; assay: microbe, parasite or virus in culture; type: cell-based; conditions: ATCC MYA-422, pH 7.4
[3] = system: Candida albicans ATCC 10231; assay: microbe, parasite or virus in culture; type: cell-based; conditions: ATCC 10231, pH 7.4; for MIC: read-out: Minimal Inhibitory Concentration, Candida Albicans (ATCC 10231)
In short: (§1)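 Broth microdilution in RPMI 1640/0.165 M MOPS, 1×10^4 CFU/ml inoculum, 2-fold serial lipopeptide dilutions in water, pH 7.4 unless stated (pH 5.5 alternative). Incubated 24–48 h at 35 °C with agitation; growth read at A620. MIC = lowest concentration giving 100% growth inhibition.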

M. laleus = type: cell-based; conditions: Table 3, short lipopeptides; pH 7.4
In short: (§2)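 LB, pH 7.4 default (5.5 optional, adjusted with HCl/NaOH); inoculum suspension 1×10^6 CFU/ml, added 1:1 to 2-fold lipopeptide dilutions in water; 37° C, 18-20 h; OD600; MIC = 100% inhibition.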

[4] = system: Staphylococcus aureus ATCC 6538P; type: cell-based; conditions: ATCC 6538, pH 7.4
In short: as §2

[5] = system: Pseudomonas aeruginosa ATCC 27853; type: cell-based; conditions: ATCC 27853, pH 7.4
In short: as §2

[6] = system: Acinetobacter baumannii ATCC 19606; type: cell-based; conditions: ATCC 19606, pH 7.4
In short: as §2

[7] = system: Cryptococcus neoformans ATCC 66031; assay: microbe, parasite or virus in culture; type: cell-based; conditions: ATCC 66031, pH 7.4
In short: as §1

[8] = system: methicilin-resistant Staphylococcus aureus (MRSA) ATCC 700698; type: cell-based; conditions: ATCC 700698, pH 7.4
In short: as §2

[9] = system: vancomycin-resistant Enterococcus faecium (VRE) ATCC 700221; type: cell-based; conditions: for Minimal Inhibitory Concentration, E. faecium (VRE): ATCC 700221, pH 7.4
In short: as §2

[10] = system: Escherichia coli ATCC 25922; type: cell-based; conditions: ATCC 25922, pH 7.4
In short: as §2

[11] = system: Enterobacter cloacae ATCC 49141; type: cell-based; conditions: ATCC 49141, pH 7.4
In short: as §2

[12] = system: Enterococcus faecalis ATCC 29212; type: cell-based; conditions: ATCC 29212, pH 7.4
In short: as §2

[13] = system: Aspergillus flavus ATCC 9643; type: cell-based; conditions: ATCC 9643, pH 7.4
B. subtilis ATCC 6051 = type: cell-based; conditions: ATCC 6051, pH 7.4
[14] = system: Aspergillus niger ATCC 9642; type: cell-based; conditions: ATCC 9642, pH 7.4
Experimental: The antifungal activity of the lipopeptides was examined in sterile 96-well plates (Nunc F96 microtiter plates) in a final volume of 200 μL as follows: 100 µl of a suspension containing fungi at a concentration of 1×10^4 Colony-Forming Units (CFU)/ml in culture medium (RPMI 1640, 0.165 M MOPS with L-glutamine, without NaHCO3) at pH 7.4 or pH 5.5 (adjustment of the pH was done by diluted solutions of HCl and NaOH) were added to 100 μl of water containing the peptide in serial 2-fold dilutions in water. The fungi were incubated in the presence of the lipopeptides for 24-48 h at 35° C. in a Binder KB115 incubator under agitation. Growth inhibition was determined by measuring the absorbance at 620 nm with a Microplate autoreader E1309 (Bio-Tek Instruments). Antifungal activity is expressed as the minimal inhibitory concentration (MIC), the concentration at which 100% inhibition of fungi growth was observed after the incubation time mentioned above. The fungi used were: Aspergillus niger ATCC 9642, Candida albicans ATCC 10231 and Cryptococcus neoformans ATCC 66031. If not indicated otherwise, the fungi growth was detected at pH 7.4.

in vitro [15] = type: in vitro ADME, porcine; conditions: pig, isolated enzyme pepsin, pH 7.3
Experimental: (§3) Equal amounts of the lipopeptides were dissolved in PBS (35 mM phosphate buffer/0.15 M NaCl, pH 7.3) to yield a final concentration of 140 μM to which 25 μM of either pepsin (from porcine stomach mucosa, Sigma), trypsin (from bovine pancreas, Sigma), or elastase (from human leukocytes, Sigma) were added. The samples were incubated under agitation for 30 min at 37° C. After addition of the appropriate protease inhibitor to stop the reaction, aliquots of the proteolytic digest were injected to C18 HPLC column and the amounts of the intact lipopeptide were evaluated using their absorbance at 215 nm.

[16] = Resistance to proteolytic digestion, intact lipopeptide by HPLC; type: in vitro ADME; conditions: human, elastase from human leukocytes; 140 μM lipopeptide, 25 μM protease, 30 min at 37° C., PBS pH 7.3
Experimental: as §3

in vitro [17] = type: in vitro ADME, bovine; conditions: isolated enzyme trypsin, pH 7.3
Experimental: as §3

[18] = system: Prostate cancer cell line CL1; assay: Cytotoxicity, XTT viability; type: cell-based, human; conditions: 24 h incubation, read-out: LC50, Prostate cancer CL1
Experimental: (§4) Prostate cancer cell lines (CL1 and 22RV1; ATCC, USA) were grown in RPMI-1640 supplemented with 10% FCS (Biological Industries, Beit Haemek, Israel). N1H-3T3 mouse fibroblast cell line (ATCC, USA) was grown in DMEM supplemented with 10% bovine serum. To test cytotoxicity against the cancer cells, aliquots of medium containing 1×10^4 cells were distributed into a 96-well plate (Falcon). After one day, the media were replaced with 90 μl of fresh media and 10 μl of a solution containing different concentrations of the peptides. The plate was then incubated for 24 h before adding to each well 50 μl of XTT reaction solution (Biological Industries, Beit Haemek, Israel); viability was determined as previously described (Papo et al., (2003) J. Biol. Chem. 278:21018-23). The LC50 (concentration at which 50% of the cells die) for each peptide was obtained from the dose-dependent cell viability curves.

[19] = system: Prostate cancer cell line 22RV1; assay: Cytotoxicity, XTT viability; type: cell-based, human; conditions: 24 h incubation, read-out: LC50, Prostate cancer 22RV1
Experimental: as §4

[20] = Cytotoxicity, XTT viability, non-cancer cells; type: cell-based; conditions: mouse, non-cancer cell line, 24 h incubation, read-out: LC50, 3T3
Experimental: as §4

- MIC [3]: 3.125 µM (≈ 3.83 µg/mL)
SMILES: CCCCCCCCCCCCCCCC(=O)N[C@H](CCCCN)C(=O)NCC(=O)NCC(=O)NCC(=O)N[C@H](CCCCN)C(=O)NCC(=O)NCC(=O)NCC(=O)N[C@H](CCCCN)C(=O)NCC(=O)NCC(=O)N[C@H](CCCCN)C(N)=O [lipopeptide 2, (CH3—(CH2)14—CO—)-D-Lys-Gly-Gly-Gly-D-Lys-Gly-Gly-Gly-D-Lys-Gly-Gly-D-Lys-NH2] (Palmitoyl-[dK]GGG[dK]GGG[dK]GG[dK]-NH2)
- Minimal Inhibitory Concentration, A. fumigatus ATCC 26430 [1]: 12.5 µM
- Minimal Inhibitory Concentration, Aspergillus fumigatus (ATCC 26430) [1]: 12.5 µM
- Minimal Inhibitory Concentration, Cryptococcus neoformans (ATCC MYA-422) [2]: 6.25 µM
- Minimal Inhibitory Concentration, Aspergillus flavus (ATCC 9643) [13]: 100 µM
- Minimal Inhibitory Concentration, C. neoformans ATCC 66031 [7]: 6.25 µM
- Minimal Inhibitory Concentration, C. albicans ATCC 10231 [3]: 3.125 µM
- Minimal Inhibitory Concentration, S. aureus (MRSA) [8]: 12.5 µM
- Minimal Inhibitory Concentration, E. faecium (VRE) [9]: 3.125 µM
- activity against VRE ([9]; in words, summary of Table 4): highly active
- Minimal Inhibitory Concentration, S. aureus [4]: 12.5 µM
- Minimal Inhibitory Concentration, S. aureus ATCC 6538P [4]: 12.5 µM
- Minimal Inhibitory Concentration, P. Aeruginosa [5]: 6.25 µM
- Minimal Inhibitory Concentration, P. aeruginosa ATCC 27853 [5]: 6.25 µM
- Minimal Inhibitory Concentration, A. Baumaannii [6]: 25 µM
- Minimal Inhibitory Concentration, A. baumannii ATCC 19606 [6]: 25 µM
- Minimal Inhibitory Concentration, E. coli [10]: 25 µM
- Minimal Inhibitory Concentration, E. coli (ATCC 25922) [10]: 25 µM
- Minimal Inhibitory Concentration, E. cloacae [11]: 25 µM
- Minimal Inhibitory Concentration, E. faecalis [12]: 12.5 µM
- Minimal Inhibitory Concentration, B. subtilis (ATCC 6051) (B. subtilis ATCC 6051): 3.125 µM
- Minimal Inhibitory Concentration, Aspergillus niger (ATCC 9642) [14]: 6.25 µM

- metabolised at 0.5 h, 140 μM (in vitro [15]): 0%
- metabolised at 0.5 h, 140 μM [16]: 0%
- metabolised at 0.5 h, 140 μM (in vitro [17]): 0%
SMILES: CCCCCCCCCCCCCC(=O)N[C@H]1CSSC[C@@H](C(N)=O)NC(=O)[C@@H](CCCCN)NC(=O)CNC(=O)CNC(=O)[C@@H](CCCCN)NC(=O)CNC(=O)CNC(=O)CNC(=O)[C@@H](CCCCN)NC(=O)CNC(=O)CNC(=O)CNC(=O)[C@@H](CCCCN)NC1=O [lipopeptide 16] (Myristoyl-C[dK]GGG[dK]GGG[dK]GG[dK]C-NH2; disulfide 1-14)

- metabolised at 0.5 h, 140 μM (in vitro [15]): 100%
- metabolised at 0.5 h, 140 μM [16]: 100%
- metabolised at 0.5 h, 140 μM (in vitro [17]): 100%
SMILES: CCCCCCCCCCCCCC(=O)N[C@H]1CSSC[C@@H](C(N)=O)NC(=O)[C@H](CCCCN)NC(=O)CNC(=O)CNC(=O)[C@H](CCCCN)NC(=O)CNC(=O)CNC(=O)CNC(=O)[C@H](CCCCN)NC(=O)CNC(=O)CNC(=O)CNC(=O)[C@H](CCCCN)NC1=O [lipopeptide 19] (Myristoyl-CKGGGKGGGKGGKC-NH2; disulfide 1-14)

More lines, now with the values behind:

SMILES: CCCCCCCCCCCCCCCC(=O)N[C@@H](CCCCN)C(=O)N[C@H](CCCCN)C(N)=O [PA-KK, Palmitoyl-Lys-D-Lys-NH2]
- MIC ([1]; read-out: Minimal Inhibitory Concentration, Aspergillus Fomigatus (ATCC 26430)): 6.25 µM (≈ 3.2 µg/mL)
- Minimal Inhibitory Concentration, E. coli-D21 (E. coli D21): 6.25 µM
- MIC ([2]; read-out: Minimal Inhibitory Concentration, Cyrptococcus neoformans (ATCC MYA-422)): 2.5 µM (≈ 1.28 µg/mL)
- MIC [3]: 12.5 µM (≈ 6.4 µg/mL)
- Minimal Inhibitory Concentration, M. laleus (M. laleus): 3.12 µM
- Minimal Inhibitory Concentration, S. aureus ATCC 6538P [4]: 6.25 µM
- Minimal Inhibitory Concentration, P. aeruginosa ATCC 27853 [5]: 100 µM
- Minimal Inhibitory Concentration, A. baumannii ATCC 19606 [6]: 100 µM

SMILES: CCCCCCCCCCCCCC(=O)N[C@@H](CCCCN)C(=O)NCC(=O)NCC(=O)NCC(=O)N[C@@H](CCCCN)C(=O)NCC(=O)NCC(=O)NCC(=O)N[C@@H](CCCCN)C(=O)NCC(=O)NCC(=O)N[C@@H](CCCCN)C(N)=O [lipopeptide 3, (CH3—(CH2)12—CO—)-Lys-Gly-Gly-Gly-Lys-Gly-Gly-Gly-Lys-Gly-Gly-Lys-NH2] (Myristoyl-KGGGKGGGKGGK-NH2)
- Minimal Inhibitory Concentration, A. fumigatus ATCC 26430 [1]: 6.25 µM
- Minimal Inhibitory Concentration, C. neoformans ATCC 66031 [7]: 3.125 µM
- Minimal Inhibitory Concentration, C. albicans ATCC 10231 [3]: 3.125 µM
- Minimal Inhibitory Concentration, S. aureus (MRSA) [8]: 6.25 µM
- Minimal Inhibitory Concentration, E. faecium (VRE) [9]: 12.5 µM
- Minimal Inhibitory Concentration, S. aureus [4]: 6.25 µM
- Minimal Inhibitory Concentration, P. Aeruginosa [5]: 6.25 µM
- Minimal Inhibitory Concentration, A. Baumaannii [6]: 12.5 µM
- Minimal Inhibitory Concentration, E. coli [10]: 6.25 µM
- Minimal Inhibitory Concentration, E. cloacae [11]: 6.25 µM
- Minimal Inhibitory Concentration, E. faecalis [12]: 6.25 µM

SMILES: CC(C)C[C@@H](N)C(=O)N[C@@H](CCCNC(=N)N)C(=O)N[C@@H](CCCNC(=N)N)C(=O)N[C@H](CC(C)C)C(=O)N[C@H](CC(C)C)C(=O)N[C@@H](CCCNC(=N)N)C(=O)N[C@@H](CCCNC(=N)N)C(=O)N[C@H](CC(C)C)C(=O)N[C@H](CC(C)C)C(=O)N[C@@H](CCCNC(=N)N)C(=O)N[C@@H](CCCNC(=N)N)C(=O)N[C@H](CC(C)C)C(N)=O [DL6R6, LRRLLRRLLRRL, reference compound] (H-[dL]RR[dL][dL]RR[dL][dL]RR[dL]-NH2; N-terminus assumed)
- CC50 [18]: > 100 µM
- CC50 [19]: 50 µM
- CC50 at 24 h [20]: > 100 µM
